Measurements from patent publication US10208044B2, “ACC inhibitors and uses thereof” (Gilead Apollo, LLC, priority 2013, dated 2019).

What was measured:
[1] = biological target: ACC2 (Homo sapiens (Human), UniProt O00763); test: in vitro ACC2 inhibition assay (ADP-Glo); format: biochemical; conditions: 5 nM ACC2, 20 μM ATP, 20 μM acetyl-CoA
Protocol: An exemplary procedure for the in vitro ACC inhibition assay, which can be used to determine the inhibitory action of compounds of the invention toward either ACC1 or ACC2, follows. The ADP-Glo™ Kinase Assay kit from Promega is used. The ADP-Glo™ Kinase Assay is a luminescent ADP detection assay to measure enzymatic activity by quantifying the amount of ADP produced during an enzyme reaction. The assay is performed in two steps; first, after the enzyme reaction, an equal volume of ADP-Glo™ Reagent is added to terminate the reaction and deplete the remaining ATP. Second, the Kinase Detection Reagent is added to simultaneously convert ADP to ATP and allow the newly synthesized ATP to be measured using a luciferase/luciferin reaction. Luminescence can be correlated to ADP concentrations by using an […]. The detailed procedure is as follows. 50 μL of the compound being tested (600 uM in DMSO) is added to a 384-well dilution plate. The compound is diluted 1:3 in succession in DMSO for each row for 11 wells. 0.5 μL ACC2 working solution is added to 384-well white Optiplate assay plate. 0.5 μL diluted compound solution in each column from step 2 is added to the assay plate, each row containing 2 replicates. For the last 2 rows, add 0.5 μL negative control (DMSO) in one row and 0.5 μL positive control (compound I-97) in the other. The plates are incubated at room temperature for 15 minutes. […] Plates are incubated at room temperature for 40 minutes, then read on a Perkin Elmer EnVision 2104 plate reader for luminescence as Relative Light Units (RLU).
Data for each concentration, as well as the positive and negative controls are averaged, and the standard deviation calculated. Percent inhibition is calculated by the formula: 100× (average negative control−compound)/(average negative control−average positive control). The IC50 for each compound is calculated by fitting the data with a non-linear regression equation: Y=Bottom+(Top-Bottom)/(1+10^((Log IC50-X)*HillSlope)), where X is the log of compound concentration and Y is percent inhibition. […]

[2] = tested on: ACC1; conditions: ACC1 isolated from rat, mouse, monkey and human; cited from earlier work
[3] = tested on: ACC2; conditions: ACC2 isolated from rat, mouse, monkey and human; cited from earlier work

Sequence of ACC2 (Homo sapiens (Human), UniProt O00763) (O00763 whole entry, species assumed): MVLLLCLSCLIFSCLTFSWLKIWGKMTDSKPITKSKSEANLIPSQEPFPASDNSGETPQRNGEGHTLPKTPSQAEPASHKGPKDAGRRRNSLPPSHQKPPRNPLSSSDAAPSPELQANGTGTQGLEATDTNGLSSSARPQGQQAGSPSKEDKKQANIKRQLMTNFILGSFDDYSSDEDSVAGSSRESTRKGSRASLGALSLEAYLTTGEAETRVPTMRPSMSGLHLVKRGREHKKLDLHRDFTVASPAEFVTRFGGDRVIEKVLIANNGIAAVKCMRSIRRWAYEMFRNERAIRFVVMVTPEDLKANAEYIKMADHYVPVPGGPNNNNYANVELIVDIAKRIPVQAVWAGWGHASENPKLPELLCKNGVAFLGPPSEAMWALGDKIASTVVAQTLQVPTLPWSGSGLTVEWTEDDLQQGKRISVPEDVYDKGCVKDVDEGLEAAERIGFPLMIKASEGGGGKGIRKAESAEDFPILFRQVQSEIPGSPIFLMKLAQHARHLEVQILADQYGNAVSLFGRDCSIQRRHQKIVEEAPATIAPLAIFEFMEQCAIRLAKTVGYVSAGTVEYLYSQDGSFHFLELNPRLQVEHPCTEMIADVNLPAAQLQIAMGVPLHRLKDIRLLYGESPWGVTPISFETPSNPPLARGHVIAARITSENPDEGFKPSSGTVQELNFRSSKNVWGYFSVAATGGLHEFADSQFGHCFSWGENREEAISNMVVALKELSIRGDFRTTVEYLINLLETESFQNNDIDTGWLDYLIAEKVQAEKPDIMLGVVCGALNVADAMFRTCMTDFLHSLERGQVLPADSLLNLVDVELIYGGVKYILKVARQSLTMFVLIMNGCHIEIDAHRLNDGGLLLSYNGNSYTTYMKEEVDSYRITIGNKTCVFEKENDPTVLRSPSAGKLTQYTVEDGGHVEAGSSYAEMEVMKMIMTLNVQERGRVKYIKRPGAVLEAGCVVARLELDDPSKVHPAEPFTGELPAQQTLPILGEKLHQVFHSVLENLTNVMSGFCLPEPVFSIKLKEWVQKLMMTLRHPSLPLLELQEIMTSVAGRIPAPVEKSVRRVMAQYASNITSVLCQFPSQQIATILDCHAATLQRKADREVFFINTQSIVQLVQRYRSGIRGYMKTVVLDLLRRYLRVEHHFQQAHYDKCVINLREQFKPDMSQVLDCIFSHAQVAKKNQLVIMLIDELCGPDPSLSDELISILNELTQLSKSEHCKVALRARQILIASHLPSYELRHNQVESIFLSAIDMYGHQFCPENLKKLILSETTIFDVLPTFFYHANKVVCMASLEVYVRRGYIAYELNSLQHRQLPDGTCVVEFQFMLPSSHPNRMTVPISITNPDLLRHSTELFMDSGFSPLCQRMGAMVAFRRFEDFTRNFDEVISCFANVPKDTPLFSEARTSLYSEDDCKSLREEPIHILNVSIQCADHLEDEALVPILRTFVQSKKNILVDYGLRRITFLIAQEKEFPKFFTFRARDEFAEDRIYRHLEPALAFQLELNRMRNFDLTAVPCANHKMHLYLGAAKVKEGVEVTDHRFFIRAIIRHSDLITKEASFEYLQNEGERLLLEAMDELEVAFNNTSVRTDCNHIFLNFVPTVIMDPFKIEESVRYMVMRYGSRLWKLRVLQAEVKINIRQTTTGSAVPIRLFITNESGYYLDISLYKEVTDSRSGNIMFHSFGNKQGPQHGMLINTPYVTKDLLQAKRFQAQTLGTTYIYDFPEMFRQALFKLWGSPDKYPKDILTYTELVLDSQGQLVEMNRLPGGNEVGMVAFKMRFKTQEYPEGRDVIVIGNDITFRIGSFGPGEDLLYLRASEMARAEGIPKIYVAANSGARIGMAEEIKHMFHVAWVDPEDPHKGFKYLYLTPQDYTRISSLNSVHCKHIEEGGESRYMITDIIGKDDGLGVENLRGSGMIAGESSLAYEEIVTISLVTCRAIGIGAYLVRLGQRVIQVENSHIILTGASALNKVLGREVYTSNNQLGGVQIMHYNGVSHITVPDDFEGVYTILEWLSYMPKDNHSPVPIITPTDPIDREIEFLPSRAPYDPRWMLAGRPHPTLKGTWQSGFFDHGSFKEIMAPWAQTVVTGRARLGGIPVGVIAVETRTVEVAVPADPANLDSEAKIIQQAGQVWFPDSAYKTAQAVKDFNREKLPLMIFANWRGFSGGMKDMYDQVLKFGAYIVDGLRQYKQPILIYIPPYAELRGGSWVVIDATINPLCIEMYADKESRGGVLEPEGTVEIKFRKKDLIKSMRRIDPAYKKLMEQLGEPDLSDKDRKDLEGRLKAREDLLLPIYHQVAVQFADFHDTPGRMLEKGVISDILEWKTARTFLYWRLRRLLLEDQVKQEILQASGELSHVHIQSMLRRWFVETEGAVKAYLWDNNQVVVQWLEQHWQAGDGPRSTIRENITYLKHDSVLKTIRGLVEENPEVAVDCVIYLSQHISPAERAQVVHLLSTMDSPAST

Row | Compound | IC50 [1] [µM] | IC50 [2] [µM] | IC50 [3] [µM]
1 | COc1ccc(F)cc1[C@H](Cn1c(=O)n(C(C)(C)C(=O)O)c(=O)c2cc(Br)ccc21)OC1CCOCC1 [Compound I-30, (R)-2-(6-bromo-1-(2-(5-fluoro-2-methoxyphenyl)-2-((tetrahydro-2H-pyran-4-yl)oxy)ethyl)-2,4-dioxo-1,2-dihydroquinazolin-3(4H)-yl)-2-methylpropanoic acid] | 20 to 50 |  | 
2 | O=C(c1c2ccccc2cc2ccccc12)N1CCC(N2CCC[C@@H](C(=O)N3CCOCC3)C2)CC1 [CP-640186] |  | ~0.06 | ~0.06
3 | COc1ccc(F)cc1[C@H](Cn1c(=O)n(C(C)(C)C(=O)O)c(=O)c2cc(-c3ncco3)ccc21)OC1CCOCC1 [Compound I-28, (R)-2-(1-(2-(5-fluoro-2-methoxyphenyl)-2-((tetrahydro-2H-pyran-4-yl)oxy)ethyl)-6-(oxazol-2-yl)-2,4-dioxo-1,2-dihydroquinazolin-3(4H)-yl)-2-methylpropanoic acid] | 20 to 50 |  | 
4 | COc1ccc(F)cc1[C@H](Cn1c(=O)n(C(C)(C)C(N)=O)c(=O)c2cc(-c3ncco3)ccc21)OC1CCOCC1 [Compound I-29, (R)-2-(1-(2-(5-fluoro-2-methoxyphenyl)-2-((tetrahydro-2H-pyran-4-yl)oxy)ethyl)-6-(oxazol-2-yl)-2,4-dioxo-1,2-dihydroquinazolin-3(4H)-yl)-2-methylpropanamide] | 20 to 50 |  | 
